Measured values published in patent publication US6492333B1, “Treatment of myeloma bone disease with proteasomal and NF-κB activity inhibitors” (Osteoscreen, Inc., priority 1999, dated 2002).
Where a SMILES comes first, the peptide text is derived from it. The star is where a group is joined. Cbz = O=C(OCc1ccccc1)*; OtBu = CC(C)(C)O*

Columns and labels:
[1] = test system: U266BL cells; experiment: Viability of myeloma cells by trypan blue dye-exclusion assay (U266BL); format: cell-based, human; details: 24 hours
Protocol: (§1) In another experiment, the direct effect of the proteasomal inhibitor PSI and other NF-kB inhibitors on the viability in human myeloma cells and 5TGM-1 cells in vitro was evaluated.
(§2) 1×10^6 human myeloma (IM9 and U266BL) cells or 5TGM-1 cells were plated out in the presence and/or absence of PSI and other NF-κB inhibitors. After 24 hours, the viability of the myeloma cells was assessed by the trypan blue dye-exclusion assay. These compounds, at low (submicromolar) concentrations, markedly decrease the viability of both human and murine myeloma cells in culture.

[2] = test system: human myeloma IM-9 cells; experiment: Viability of myeloma cells by trypan blue dye-exclusion assay (IM-9); format: cell-based; details: 24 hours
Protocol: as §1, §2

[3] = test system: 5TGM-1 cultured myeloma cells; experiment: PSI injected into subcutaneous 5TGM-1 myeloma tumors in mice; format: in vivo, C57BL/KaLwRij mice
Protocol: Nine (9) C57BL/KaLwRij mice were inoculated with 0.5×10^6 5TGM-1 cultured myeloma cells which were injected subcutaneously over the flank.
One group had PSI injected directly into the tumors (˜5 mg/kg/day) and the other group had only vehicle injected into the tumors.

[4] = test system: 5TGM-1 cells; experiment: Serum tumor marker IgG2b in mice inoculated intravenously with 5TGM-1 cells; format: in vivo, C57BL/KwLaRij mice; details: PSI 5 mg/kg/day subcutaneously; sera on days 0, 7, 14 and 18
Protocol: Eight (8) C57BL/KwLaRij mice were each injected with 1×10^6 5TGM-1 cells through the tail vein. They were then randomized into two groups, one group dosed with PSI (5 mg/kg/day subcutaneously) and the other group (untreated control) received only vehicle. Sera were obtained at the start (day 0) and on days 7, 14 and 18 followed by assay for IgG2b.

[5] = test system: 5TGM1 cells; experiment: Viability of myeloma cells by trypan blue dye-exclusion assay (5TGM-1); format: cell-based, murine; details: 100 nM, 24 hours
Protocol: as §1, §2

[6] = test system: 5TGM-1 cultured myeloma cells; experiment: Hind-limb paralysis after intravenous 5TGM-1 myeloma cell inoculation; format: in vivo, C57BL/KaLwRij mice; details: PSI 5 mg/kg/day subcutaneously for 28 days; untreated mice all paralysed by at least day 27
Protocol: Ten (10) C57BL/KaLwRij mice were inoculated intravenously with 1×10^6 5TGM-1 cultured myeloma cells. When untreated, the mice invariably develop hind-limb paralysis after 26-30 days.
One group of five (5) mice were injected with PSI (5 mg/kg/day) subcutaneously over their flank portion for 28 days and the other group received only vehicle. […] All of the untreated mice had developed hind-limb paralysis by at least day 27. In contrast, none of the PSI-treated group developed paraplegia before at least day 33.

[7] = relative to MG-132, MG-115 and MG-341

S=C(S)N1CCCC1 [PDTC, 1-pyrrolidine carbothiotic acid]
viability ([1]; 0.1 μM): less than 40%

O=C(NC1=CC(=O)c2ccccc2C1=O)c1ccccc1 [PPM-18]
effect on viability ([2]; concentration not given): relatively ineffective | effect on viability as compared to control ([1]; concentration not given): does not appear to affect viability appreciatively

CC[C@H](C)[C@H](NC(=O)OCc1ccccc1)C(=O)N[C@@H](CCC(=O)OC(C)(C)C)C(=O)N[C@@H](C)C(=O)N[C@H](C=O)CC(C)C [PSI, N-carbobenzoyl-Ile-Glu-(OtBu)-Ala-Leu-CHO] (Cbz-IE(OtBu)AL-aldehyde)
survival and signs of tumor ([3]; 4 months after treatment, PSI ~5 mg/kg/day intratumoral): alive and well with no signs of tumor | size of the tumors ([3]; PSI ~5 mg/kg/day injected directly into subcutaneous tumors, treatment commenced on day 35): decreased markedly | health of treated mice ([3]; up until 3 months after tumor inoculation, even though treatment was discontinued, PSI ~5 mg/kg/day intratumoral): remained healthy | tumor marker IgG2b in sera [4]: markedly reduced | viability [5]: ~0% | viability ([2]; 0.01 μM): marked diminution in viability | viability ([1]; 0.01 μM): less than 20% | time at which hind-limb paralysis (paraplegia) developed [6]: ≥ 33 days

C=C(C)[C@]12C[C@@H](C)[C@@]34O[C@](Cc5ccccc5)(O[C@@H]1[C@@H]3C=C(COC(=O)Cc1ccc(O)c(OC)c1)C[C@]1(O)C(=O)C(C)=C[C@@H]41)O2 [resiniferatoxin]
activity in the ABA assay [7]: less active
